Measurements taken from the NIST ThermoML archive (doi:10.1016/j.fluid.2005.11.020).
Several values for one entry are separate records, joined by “and”; a condition that tells them apart may be missing. Identical values can stand only once. ± gives the expanded uncertainty stated by the source.

Settings: Liquid; for mass density: 293.2 K, 101.33 kPa, Vibrating tube method; for vapor or sublimation pressure: Ebulliometric method (Recirculating still)

Row | SMILES | mass density | vapor or sublimation pressure (428.8 K) | vapor or sublimation pressure (371.3 K) | vapor or sublimation pressure (371.4 K) | vapor or sublimation pressure (357.5 K) | vapor or sublimation pressure (404.6 K)
1 | Brc1ccccc1 [bromobenzene] | 1495.28 ± 0.48 kg/m3 | 100.91 ± 1 kPa |  |  |  | 
2 | CCCCCCC [heptane] | 683.53 ± 0.27 kg/m3 |  | 100.91 ± 1 kPa and 100.6 ± 1 kPa | 100.95 ± 1 kPa |  | 
3 | Fc1ccccc1 [fluorobenzene] | 1022.27 ± 0.27 kg/m3 |  |  |  | 100.55 ± 1 kPa | 
4 | Clc1ccccc1 [chlorobenzene] | 1106.07 ± 0.3 kg/m3 |  |  |  |  | 100.82 ± 1 kPa
